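Five concentrations, 48 hours, 96-well plates. The concentration for 50% growth inhibition is given as GI50. Definition used: TGI = concentration required for complete inhibition of growth.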
Key:
Assay in all cases: growth of human tumour cells (NCI), 48 h
[1] = system: NCI-H23 lung
[2] = system: SNB-19 CNS
[3] = system: NCI-H226 lung
[4] = system: TK-10 renal
[5] = system: MOLT-4 leukemia
[6] = system: COLO 205 colon
[7] = system: K-562 leukemia
[8] = system: MDA-MB-435
[9] = system: A549 NSCLC
[10] = system: SK-MEL-28 melanoma

| Structure (SMILES) | GI50 [1] | TGI [1] | GI50 [2] | TGI [2] | GI50 [3] | TGI [3] | GI50 [4] | TGI [4] | GI50 [5] | TGI [5] | GI50 [6] | TGI [6] | GI50 [7] | TGI [7] | GI50 [8] | TGI [8] | GI50 [9] | TGI [9] | GI50 [10] | TGI [10] |
| --- | --- | --- | --- | --- | --- | --- | --- | --- | --- | --- | --- | --- | --- | --- | --- | --- | --- | --- | --- | --- |
| Oc1ccc(Nc2c3ccccc3nc3occ(Cl)c23)cc1 | 3.26 µM | > 100 µM | 4.62 µM | > 100 µM | 3.12 µM | 13.5 µM | 6.46 µM | 50.8 µM | 3.14 µM | 13.2 µM | 4.12 µM | > 100 µM | 2.24 µM | 53.1 µM | 1.53 µM | 6.51 µM | 3.3 µM | 32.2 µM | 6.18 µM | 63.8 µM |
| COc1cc(/C=C/C(=O)c2cccc(-n3cc(-c4ccc(Cl)cc4)[nH]c3=O)c2)ccc1O | 4.43 µM | 24.4 µM | 3.52 µM | 15.6 µM | 6.38 µM | 19.5 µM | 6.6 µM | > 65.5 µM | 1.62 µM | > 25.1 µM | 4.88 µM | 16 µM | 2.36 µM | > 26.4 µM | 2.75 µM | > 47.5 µM | 4.67 µM | > 37.7 µM | 2.07 µM | 4.18 µM |
| COC(=O)C1=CN(CC2=CC(=O)C(C)=CC2=O)C=C(C(=O)OC)C1c1cccc(OC)c1 | 18.4 µM | 53.5 µM | 26 µM | > 79.2 µM | 20 µM | 62.2 µM | 12.2 µM | 25.9 µM | 3.11 µM | > 100 µM | 18.4 µM | > 66.6 µM | 3.84 µM | > 35.6 µM | 5.8 µM | 16.2 µM | 25.1 µM | > 67.2 µM | 25 µM | 79 µM |
| CCN(Cc1ccc(F)cc1)c1ccc(CO)c(Br)c1 | 15.6 µM | > 56.1 µM | 15.7 µM | 44.2 µM | 0.0987 µM | 0.231 µM | 0.021 µM | 0.101 µM | 18.8 µM | 53.1 µM | 0.966 µM | 4.98 µM | 0.487 µM | 18.4 µM | 19.4 µM | 49.6 µM | 0.614 µM | 21.3 µM | 15 µM | 50.6 µM |
| COC12C(COC(N)=O)C3=C(C(=O)C(C)=C(N)C3=O)N1CC1C2N1C (stereo not given) |  | 17.6 µM |  | 62.5 µM |  | 38.8 µM |  | 69.5 µM |  | 18.6 µM |  | 21.6 µM |  | 179 µM |  | 28.1 µM |  | 24.2 µM |  | 57.4 µM |

From PubChem BioAssay (NCI)
